Molecules are shown by their SMILES. Bounds are passed on as bounds.

For orientation: IC50 means the point on the concentration scale where inhibition reaches its midpoint.

Data set [1] concerns the target T1, hNav1.7 (Homo sapiens, UniProt Q15858).
T1 construct: host or cells: HEK293
The data set is described as follows: automated whole-cell patch clamp (QPatch 16X), HEK293-hNav1.7. In kind it is cell-based. The conditions noted are these: HEK293 cells stably expressing human channel; read-out: IC50 Nav1.7.

For data set [2], the system named is mouse sciatic nerves. Nature of the data set: epifluorescence imaging (IVIS Spectrum) of sciatic nerves and organs 30 min after injection. In kind it is in vivo. Particulars: 30 min. The procedure: Animal Model. Female athymic nude mice (4-8 week-old, athymic-Nude (outbred) (Stock #: 088; Envigo, USA) were allowed to acclimatize at the Memorial Sloan Kettering Cancer Center (MSK) vivarium for 1 week with ad libitum food and water prior to the experimental procedure. For imaging experiments, animals were sacrificed 30 min post-tail vein injection of Hs1a-FL, Hs1a/Hs1a-FL, Hsp1a-FL, Hsp1a/Hsp1a-FL, or PBS. All animal experiments were performed in accordance with institutional guidelines and approved by the IACUC of MSK, following NIH guidelines for animal welfare.
Epifluorescence Imaging. Animals were intravenously injected with Hsp1a-FL (7 nmol, 68 μM of Hsp1a-FL in 100 μL of PBS, n=9), or Hs1a-FL (4 nmol, 45 μM of Hs1a-FL in 100 μL of PBS, n=3). To assess the specificity of the Hsp1a-FL or Hs1a-FL accumulation, animals were injected with a combination of Hsp1a and Hsp1a-FL (Hsp1a-FL, 68 μM, 7 nmol and Hsp1a 204 μM, 21 nmol in 100 μL PBS, n=9), Hs1a and Hs1a-FL (Hs1a-FL, 45 μM, 4 nmol and Hs1a, 120 μM, 12 nmol in 100 μL PBS, n=3) or PBS (n=9). Animals were sacrificed 30 min post-injection and epifluorescence images obtained. Epifluorescence images of the right sciatic nerve (RSN) and the left sciatic nerve (LSN) were obtained in situ. Epifluorescence of the biodistribution of the peptides in excited RSN, LSN, muscle, heart, kidney, liver, and brain were acquired with IVIS Spectrum (PerkinElmer) using a predefined GFP filterset (e.g., excitation=465/30 nm, emission=520-580 nm) based on the particular fluorophore employed in the compounds. Autofluorescence was removed through spectral unmixing. Semiquantitative analysis of the Hsp1a-FL or Hs1a-FL signal was conducted by measuring the average radiant efficiency (in units of unit [p/s/cm^2/sr]/[μW/cm^2]) in regions of interest (ROIs) that were placed on all resected organs under white light guidance.

In data set [3] the target is T2, hNav1.6 (Homo sapiens, UniProt Q9UQD0).
T2 construct: host or cells: HEK293
T2 sequence (Q07699 19-218): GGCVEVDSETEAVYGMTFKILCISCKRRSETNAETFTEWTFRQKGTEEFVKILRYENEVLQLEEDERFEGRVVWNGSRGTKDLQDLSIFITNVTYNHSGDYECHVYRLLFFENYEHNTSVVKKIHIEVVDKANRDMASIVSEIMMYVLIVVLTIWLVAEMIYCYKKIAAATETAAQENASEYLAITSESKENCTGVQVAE
T2 sequence (Q9UQD0 whole entry): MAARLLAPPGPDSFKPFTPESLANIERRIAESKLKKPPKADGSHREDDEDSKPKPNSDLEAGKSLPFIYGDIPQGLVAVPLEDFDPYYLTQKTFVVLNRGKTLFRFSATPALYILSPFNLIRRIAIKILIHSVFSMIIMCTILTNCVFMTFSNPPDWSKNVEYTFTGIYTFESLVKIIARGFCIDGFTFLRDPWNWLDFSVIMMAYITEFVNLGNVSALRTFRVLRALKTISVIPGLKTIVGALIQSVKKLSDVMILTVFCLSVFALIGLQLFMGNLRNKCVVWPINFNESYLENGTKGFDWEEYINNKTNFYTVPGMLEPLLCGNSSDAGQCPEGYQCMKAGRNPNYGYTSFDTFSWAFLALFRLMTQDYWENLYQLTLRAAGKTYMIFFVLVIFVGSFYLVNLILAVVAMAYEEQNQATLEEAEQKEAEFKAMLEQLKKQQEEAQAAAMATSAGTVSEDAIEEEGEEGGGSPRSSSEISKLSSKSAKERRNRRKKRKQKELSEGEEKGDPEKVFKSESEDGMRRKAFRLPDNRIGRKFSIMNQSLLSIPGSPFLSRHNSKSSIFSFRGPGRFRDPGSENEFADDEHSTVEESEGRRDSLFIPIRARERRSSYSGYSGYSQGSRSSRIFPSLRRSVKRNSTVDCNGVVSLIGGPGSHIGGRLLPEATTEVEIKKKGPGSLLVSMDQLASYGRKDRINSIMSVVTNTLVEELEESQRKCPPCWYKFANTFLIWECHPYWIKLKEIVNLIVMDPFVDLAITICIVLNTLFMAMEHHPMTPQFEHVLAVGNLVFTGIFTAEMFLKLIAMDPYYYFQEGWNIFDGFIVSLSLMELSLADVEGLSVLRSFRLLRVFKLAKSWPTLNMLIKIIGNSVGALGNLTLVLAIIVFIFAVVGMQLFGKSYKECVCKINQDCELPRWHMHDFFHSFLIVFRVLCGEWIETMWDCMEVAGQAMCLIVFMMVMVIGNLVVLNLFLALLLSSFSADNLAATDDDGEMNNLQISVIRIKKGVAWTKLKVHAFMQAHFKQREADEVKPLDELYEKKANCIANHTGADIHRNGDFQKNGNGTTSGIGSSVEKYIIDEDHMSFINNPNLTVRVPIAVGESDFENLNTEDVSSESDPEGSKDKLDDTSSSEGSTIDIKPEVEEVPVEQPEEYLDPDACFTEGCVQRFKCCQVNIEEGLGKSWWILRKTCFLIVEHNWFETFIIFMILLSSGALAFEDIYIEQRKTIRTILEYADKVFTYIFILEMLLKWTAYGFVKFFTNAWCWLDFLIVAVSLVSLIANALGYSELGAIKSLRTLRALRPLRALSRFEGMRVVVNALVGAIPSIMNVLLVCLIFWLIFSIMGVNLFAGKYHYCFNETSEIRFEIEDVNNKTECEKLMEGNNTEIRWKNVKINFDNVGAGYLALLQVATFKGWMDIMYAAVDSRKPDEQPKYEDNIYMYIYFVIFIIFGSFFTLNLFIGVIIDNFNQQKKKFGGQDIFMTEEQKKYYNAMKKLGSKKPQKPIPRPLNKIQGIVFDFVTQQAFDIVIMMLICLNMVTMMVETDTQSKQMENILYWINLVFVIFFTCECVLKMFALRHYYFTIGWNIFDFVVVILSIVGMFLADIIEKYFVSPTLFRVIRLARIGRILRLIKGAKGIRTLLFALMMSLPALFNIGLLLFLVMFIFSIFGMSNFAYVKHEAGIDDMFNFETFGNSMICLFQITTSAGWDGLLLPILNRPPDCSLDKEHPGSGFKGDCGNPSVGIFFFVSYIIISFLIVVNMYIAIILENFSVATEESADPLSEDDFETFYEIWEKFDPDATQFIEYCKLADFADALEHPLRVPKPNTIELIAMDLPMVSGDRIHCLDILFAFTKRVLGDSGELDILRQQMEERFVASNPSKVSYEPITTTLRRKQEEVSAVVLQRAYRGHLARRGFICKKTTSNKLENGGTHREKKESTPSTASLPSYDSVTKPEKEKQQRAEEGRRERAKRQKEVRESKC
Nature of the data set: automated whole-cell patch clamp (QPatch 16X), HEK293-hNav1.6. In kind it is cell-based. Particulars: HEK293 cells stably expressing human channel; read-out: IC50 Nav1.6. For orientation: The patch-clamp technique gives a direct electrical read-out from membranes.

In data set [4] the target is T3, hNav1.5 (Homo sapiens, UniProt Q14524).
T3 construct: host or cells: HEK293
The data set is described as follows: automated whole-cell patch clamp (QPatch 16X), HEK293-hNav1.5. In kind it is cell-based. Particulars: HEK293 cells stably expressing human channel; read-out: IC50 Nav1.5.

Data set [5] concerns mouse sciatic nerves. The data set is described as follows: confocal microscopy / histology of sciatic nerve sections after injection. In kind it is in vivo. Particulars: 30 min. As to the method:
Confocal Microscopy. 5 or 10 μm cryosections of OCT-embedded sciatic nerve tissues from mice intravenously injected with Hsp1a-FL (7 nmol, 68 μM of Hsp1a-FL in 100 μL of PBS), Hsp1a/Hsp1a-FL (Hsp1a-FL, 68 μM, 7 nmol, and Hsp1a 204 μM, 21 nmol in 100 μL PBS), Hs1a-FL (4 nmol, 45 μM of Hs1a-FL in 100 μL of PBS), with the block Hs1a/Hs1a-FL (Hs1a-FL, 45 μM, 4 nmol and Hs1a 120 μM, 12 nmol in 100 μL PBS) or PBS were used to determine the distribution and localization of fluorescently-tagged peptide. Animal organs were incubated with Hoechst 33342 (blue, 20 μM, 1 nmol in 50 μL of PBS) to counterstain nuclei before embedding in Mowiol mounting medium. Fresh tissue samples were counterstained with 33342 (blue, 20 μM, 1 nmol in 50 μL of PBS) up to 90 min post-mortem and placed directly on a microscope slide for imaging.

Data set [6] concerns the target T4, hNav1.3 (Homo sapiens, UniProt Q9NY46).
T4 construct: host or cells: HEK293
The data set is described as follows: automated whole-cell patch clamp (QPatch 16X), HEK293-hNav1.3. Particulars: HEK293 cells stably expressing human channel; read-out: IC50 Nav1.3. In kind it is cell-based.

Data set [7] has as its target T5, hNav1.4 (Homo sapiens, UniProt P35499).
T5 construct: host or cells: HEK293
Nature of the data set: automated whole-cell patch clamp (QPatch 16X), HEK293-hNav1.4. The conditions noted are these: HEK293 cells stably expressing human channel; read-out: IC50 Nav1.4. In kind it is cell-based.

Data set [8] has as its target T6, hNav1.1 (Homo sapiens, UniProt P35498).
T6 construct: host or cells: HEK293
Nature of the data set: automated whole-cell patch clamp (QPatch 16X), HEK293-hNav1.1. In kind it is cell-based. Particulars: HEK293 cells stably expressing human channel; read-out: IC50 Nav1.1.

Data set [9] concerns the target T7, hNav1.2 (Homo sapiens, UniProt Q99250).
T7 construct: host or cells: HEK293
The data set is described as follows: automated whole-cell patch clamp (QPatch 16X), HEK293-hNav1.2. In kind it is cell-based. Particulars: HEK293 cells stably expressing human channel; read-out: IC50 Nav1.2.

Data set [10] concerns the target hERG (Homo sapiens, UniProt Q12809). Nature of the data set: Hs1a off-target voltage-gated potassium channel, hERG. In kind it is cell-based. The procedure:
Hs1a was isolated from the venom of the Chinese bird spider, Haplopelma schmidti. To assess the selectivity of Hs1a for Nav channel subtypes, Hs1a was tested on HEK cells stably transfected with human Nav1.1-Nav1.7 channels using automated patch clamp techniques. […] The IC50 value for hNav1.7 obtained in mammalian cells correlates with the IC50 obtained by two-electrode voltage clamp on hNav1.7 expressed in X. laevis oocytes. The selectivity of Hs1a for off-target voltage-gated calcium and potassium channels were also tested.
(Block of hERG is tested as a sign of cardiac risk.)

Where [11] appears, read: 4 nmol plus 12 nmol unmodified Hs1a.

T7 sequence (Q07699 19-218): as the sequence (Q07699 19-218) above
T7 sequence (Q99250 whole entry): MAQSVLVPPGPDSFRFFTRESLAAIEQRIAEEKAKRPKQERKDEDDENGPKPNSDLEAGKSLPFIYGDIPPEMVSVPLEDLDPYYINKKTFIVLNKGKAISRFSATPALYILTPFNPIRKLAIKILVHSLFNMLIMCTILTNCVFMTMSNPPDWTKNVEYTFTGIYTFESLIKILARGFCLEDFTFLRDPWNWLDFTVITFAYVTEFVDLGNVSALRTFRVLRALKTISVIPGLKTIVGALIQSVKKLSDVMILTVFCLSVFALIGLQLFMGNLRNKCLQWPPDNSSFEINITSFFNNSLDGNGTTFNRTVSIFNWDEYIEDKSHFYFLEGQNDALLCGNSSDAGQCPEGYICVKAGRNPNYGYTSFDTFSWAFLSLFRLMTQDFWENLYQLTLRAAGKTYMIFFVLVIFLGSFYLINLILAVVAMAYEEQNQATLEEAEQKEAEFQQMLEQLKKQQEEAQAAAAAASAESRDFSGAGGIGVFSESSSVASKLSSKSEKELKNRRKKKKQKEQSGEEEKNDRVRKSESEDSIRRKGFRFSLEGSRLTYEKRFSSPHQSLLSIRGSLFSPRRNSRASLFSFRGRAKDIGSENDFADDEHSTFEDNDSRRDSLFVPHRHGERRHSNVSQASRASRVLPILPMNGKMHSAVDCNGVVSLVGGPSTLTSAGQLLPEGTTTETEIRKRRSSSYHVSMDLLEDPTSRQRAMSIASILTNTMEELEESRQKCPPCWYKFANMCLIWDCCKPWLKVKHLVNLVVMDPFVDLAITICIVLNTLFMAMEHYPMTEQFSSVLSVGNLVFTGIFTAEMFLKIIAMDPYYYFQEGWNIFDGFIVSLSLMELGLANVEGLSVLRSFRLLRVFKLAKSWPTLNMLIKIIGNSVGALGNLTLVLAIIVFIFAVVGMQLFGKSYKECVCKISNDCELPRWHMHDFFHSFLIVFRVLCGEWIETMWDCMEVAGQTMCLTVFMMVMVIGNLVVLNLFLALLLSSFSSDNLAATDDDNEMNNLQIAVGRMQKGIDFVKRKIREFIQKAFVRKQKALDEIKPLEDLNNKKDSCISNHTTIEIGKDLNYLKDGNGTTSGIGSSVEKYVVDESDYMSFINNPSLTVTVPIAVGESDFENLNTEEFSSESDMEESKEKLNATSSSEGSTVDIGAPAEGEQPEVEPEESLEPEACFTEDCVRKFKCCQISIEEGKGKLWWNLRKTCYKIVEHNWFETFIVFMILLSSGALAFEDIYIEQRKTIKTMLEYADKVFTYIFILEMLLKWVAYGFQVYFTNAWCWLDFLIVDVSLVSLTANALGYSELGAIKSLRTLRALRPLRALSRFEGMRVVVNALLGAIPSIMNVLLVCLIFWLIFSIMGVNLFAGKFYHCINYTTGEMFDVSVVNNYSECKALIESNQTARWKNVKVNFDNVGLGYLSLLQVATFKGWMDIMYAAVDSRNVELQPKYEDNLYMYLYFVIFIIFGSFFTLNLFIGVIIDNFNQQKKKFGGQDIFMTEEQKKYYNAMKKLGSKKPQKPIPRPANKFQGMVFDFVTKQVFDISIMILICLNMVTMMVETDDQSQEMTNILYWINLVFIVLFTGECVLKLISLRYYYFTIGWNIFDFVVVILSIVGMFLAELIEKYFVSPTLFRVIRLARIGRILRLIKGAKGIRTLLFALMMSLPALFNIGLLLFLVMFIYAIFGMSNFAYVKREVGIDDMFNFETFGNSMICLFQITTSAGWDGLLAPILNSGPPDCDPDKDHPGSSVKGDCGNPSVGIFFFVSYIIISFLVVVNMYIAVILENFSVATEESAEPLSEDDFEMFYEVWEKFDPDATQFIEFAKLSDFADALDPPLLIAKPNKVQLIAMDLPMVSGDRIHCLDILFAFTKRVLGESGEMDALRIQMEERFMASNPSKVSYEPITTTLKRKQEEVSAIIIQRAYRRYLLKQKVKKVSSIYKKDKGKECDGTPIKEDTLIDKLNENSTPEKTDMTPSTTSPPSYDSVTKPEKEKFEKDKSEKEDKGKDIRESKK

As to `CC(C)C[C@H](NC(=O)[C@H](CCCCN)NC(=O)CNC(=O)[C@H](CCCCN)NC(=O)[C@@H]1CSSC[C@@H]2NC(=O)[C@H](CCCCN)NC(=O)[C@H](CC(=O)O)NC(=O)[C@H](CC(N)=O)NC(=O)[C@H](CCCCNC(=O)CCCCC[N+]3=C(/C=C/C4=CC(=C/C=C5/N(C)c6ccc7ccccc7c6C5(C)C)/CCC4)C(C)(C)c4c3ccc3ccccc43)NC(=O)[C@@H]3CCCN3C(=O)[C@H](CC(N)=O)NC(=O)[C@@H]3CSSC[C@H](NC(=O)[C@H](C(C)C)NC(=O)[C@H](CC(C)C)NC(=O)[C@H](CC(N)=O)NC(=O)[C@H](C)NC(=O)[C@H](CSSC[C@H](NC(=O)[C@H](CC(=O)O)NC(=O)[C@H](CC(N)=O)NC(=O)CN)C(=O)N[C@@H](CC(C)C)C(=O)NCC(=O)N[C@@H](Cc4ccccc4)C(=O)N[C@@H](Cc4c[nH]c5ccccc45)C(=O)N[C@@H](CO)C(=O)N[C@@H](C)C(=O)N3)NC2=O)C(=O)N[C@@H](CO)C(=O)N[C@@H](CO)C(=O)N[C@@H](CCCCN)C(=O)N[C@@H](Cc2c[nH]cn2)C(=O)N[C@@H](CCCCN)C(=O)N[C@@H](Cc2c[nH]c3ccccc23)C(=O)N1)C(=O)O` [Hs1a-FL], the half-inhibitory concentration (IC50) is 26.9 nM in data set [1]; 19.2 nM in data set [3]; > 3000 nM in data set [4]; 107 nM in data set [6]; > 3000 nM in data set [7]; 19.4 nM in data set [8]. Moreover, in data set [9], the IC50 was 81.2 nM. The “radiant efficiency, resected sciatic nerves” value in [2] (4 nmol i.v. alone) was 1.6±0.3×10^5 [p/s/cm^2/sr]/[μW/cm^2]. Further, the “radiant efficiency, brain” value in [2] (4 nmol i.v.) was 0.2±0.1×10^7 [p/s/cm^2/sr]/[μW/cm^2]. For the same compound, the “radiant efficiency, kidney” value in data set [2] (4 nmol i.v.) was 1.4±1.1×10^7 [p/s/cm^2/sr]/[μW/cm^2]. For the same compound, in data set [2] (4 nmol i.v.), the “radiant efficiency, liver” value is 3.0±2.0×10^7 [p/s/cm^2/sr]/[μW/cm^2]. The “radiant efficiency, spleen” value in [2] (4 nmol i.v.) was 0.8±0.5×10^7 [p/s/cm^2/sr]/[μW/cm^2]. Moreover, in data set [2] (setting [11]), the “radiant efficiency, resected sciatic nerves, co-injection (blocking)” value is 0.09±0.03×10^5 [p/s/cm^2/sr]/[μW/cm^2]. For the same compound, the “signal in sciatic nerve sections” value in data set [5] (4 nmol i.v. alone) is “confirmed the presence of Hs1a-FL signal”. Further, the “signal in sciatic nerve sections, blocked mice” value in data set [5] (setting [11]) is listed as “No signal was detected”.

For the compound `CC(C)C[C@H](NC(=O)[C@H](CCCCN)NC(=O)CNC(=O)[C@H](CCCCN)NC(=O)[C@@H]1CSSC[C@@H]2NC(=O)[C@H](CCCCN)NC(=O)[C@H](CC(=O)O)NC(=O)[C@H](CC(N)=O)NC(=O)[C@H](CCCCN)NC(=O)[C@@H]3CCCN3C(=O)[C@H](CC(N)=O)NC(=O)[C@@H]3CSSC[C@H](NC(=O)[C@H](C(C)C)NC(=O)[C@H](CC(C)C)NC(=O)[C@H](CC(N)=O)NC(=O)[C@H](C)NC(=O)[C@H](CSSC[C@H](NC(=O)[C@H](CC(=O)O)NC(=O)[C@H](CC(N)=O)NC(=O)CN)C(=O)N[C@@H](CC(C)C)C(=O)NCC(=O)N[C@@H](Cc4ccccc4)C(=O)N[C@@H](Cc4c[nH]c5ccccc45)C(=O)N[C@@H](CO)C(=O)N[C@@H](C)C(=O)N3)NC2=O)C(=O)N[C@@H](CO)C(=O)N[C@@H](CO)C(=O)N[C@@H](CCCCN)C(=O)N[C@@H](Cc2c[nH]cn2)C(=O)N[C@@H](CCCCN)C(=O)N[C@@H](Cc2c[nH]c3ccccc23)C(=O)N1)C(=O)O` [Hs1a], the half-inhibitory concentration (IC50) in data set [10] is > 3000 nM.

The values are drawn from patent publication US20220089663A1, “PROTEINS AND FLUOROPHORE-CONTAINING COMPOUNDS SELECTIVE FOR NaV1.7” (MEMORIAL SLOAN KETTERING CANCER CENTER, priority 2019, published 2022).
